From publication PMC5843817, “Preclinical validations of [^18F]FPyPEGCBT-c(RGDfK): a ^18F-labelled RGD peptide prepared by ligation of 2-cyanobenzothiazole and 1,2-aminothiol to image angiogenesis” (EJNMMI Radiopharmacy and Chemistry, 2016) come the findings set out here.

For assay [1], the system named is αVβ3, αVβ5 and α5β1 integrins on U-87 MG cancer cells. The assay can be described thus: [^125I]echistatin displacement cell binding assay, U-87 MG. The settings on record: U-87 MG cells; displacement of [^125I]echistatin; 1 h, 37 °C. On the set-up: species or system human. On the procedure: (§1) In vitro integrin-binding of FPyPEGCBT-c(RGDfK) was evaluated using a standard displacement assay of [^125I]echistatin. U-87 MG and SKOV-3 cells were seeded in 96-well plates 24 h prior to the experiment (U-87 MG, 6 × 10^4 cells per well; SKOV-3, 3 × 10^4 cells per well). On the day of the experiment, the cells were washed twice with binding buffer (20 mM Tris pH 7.4, 150 mM NaCl, 2 mM CaCl2, 1 mM MgCl2, 1 mM MnCl2, 0.1 % BSA), then co-incubated for 1 h at 37 °C in binding buffer with 370 Bq/well [^125I]echistatin (Perkin Elmer, Schwerzenbach, Switzerland) and a concentration range (10^−9 to 10^−4 M) of FPyPEGCBT-c(RGDfK) or c(RGDfV) (PeptaNova, Sandhausen, Germany) as a reference peptide. Cells were then washed three times with binding buffer and lysed in 1 M NaOH. The cell-associated radioactivity was measured in a Wizard^2 2470 γ-counter (Perkin Elmer). The IC50 (Inhibitory Concentration of 50 %) values were calculated by fitting the data by nonlinear regression using GraphPad Prism (GraphPad software, La Jolla, CA, USA).
(§2) Fig. 2 Displacement of [^125I]echistatin by FPyPEGCBT-c(RGDfK). U-87 MG and SKOV-3 cancer cells were co-incubated for 1 h in 96-well plates with 370 Bq/well [^125I]echistatin and a concentration range (10^−9 to 10^−4 M) of FPyPEGCBT-c(RGDfK) or c(RGDfV). After lysis, the cell-associated radioactivity was measured in a γ-counter. […]

In assay [2] the test system is αVβ3, αVβ5 and α5β1 integrins on SKOV-3 cancer cells. The experiment in a line: [^125I]echistatin displacement cell binding assay, SKOV-3. On the set-up: species or system human. The settings on record: SKOV-3 cells; displacement of [^125I]echistatin; 1 h, 37 °C. As to the method: as §1, §2

With c(RGDfV), the half-inhibitory concentration (IC50) stood at 600 nM in assay [1] and 259 ± 2 nM in assay [2].

A word on the IC50: it is the concentration that gives 50% inhibition. Low readings indicate greater potency, high ones weaker potency.
